Measurements reported in patent US20090197279A1, “MICROTUBULE SYNTHESIS AS A BIOMARKER” (KINEMED, INC., priority 2005, published 2009).

Columns and labels:
primary rat neurons = assay: Microtubule dynamics in glutamate-stimulated cultures of primary rat neurons; type: cell-based; settings: parallel experiments, data not shown
Experimental: Rat brain hippocampus neuronal cells were obtained from Cambrex Bio Science (Walkersville, Md.). The neurons were grown in Neurobasal medium supplemented with 2 mM Glutamine, 100 U/ml penicillin/streptomycin- and 2% B27 in a humidified atmosphere of 10% CO2 at 37° C. for 14 days on a poly-D-lysine and laminin coated 10 cm^2 tissue culture dish.
During experimental manipulation of neural connectivity, the dynamic responses of dendritic microtubules to various stimuli are likely to differ from those of axonal shafts or of the cell body. In order to detect such differential responses by use of the invention disclosed herein, we cultured primary neurons from rat brain hippocampi and labeled newly synthesized tubulin by adding 5% ^2H2O in culture media for 24 hours. After separation of tubulin dimers and polymers in cytosolic extracts, we captured axonal growth cone and dendritic microtubules by sequential binding to immunoaffinity columns reactive with tau and MAP2, respectively, leaving only somatic and axonal shaft microtubules in the unbound fraction (FIG. 5A). Tubulin was purified further from each fraction, and label incorporation into Ala was measured by GC/MS (FIG. 5B). […] Free Ala in culture media was >80% equilibrated with ^2H2O (not shown). […]

microtubule polymer = assay: Total abundance of microtubule polymer by Western blotting after CFC; type: in vivo, mouse; settings: conditioned mice, nocodazole 0.2 mg/kg; data not shown
Excerpt: Tubulin was purified using minor modifications of protocols described previously (Fanara, P., Oback, B., Ashman, K., Podtelejnikov, A., Brandt, R. Identification of MINUS, a small polypeptide that functions as a microtubule nucleation suppressor. EMBO J. 18, 565-577 (1999); Fanara, P. et al. In vivo measurement of microtubule dynamics using stable isotope labeling with heavy water. Effect of taxanes. J. Biol. Chem. 279, 49940-49947 (2004). Briefly, cultured neurons were gently scraped off culture plates, washed in phosphate-buffered saline (PBS), and homogenized in microtubule-stabilizing buffer. […] The relative abundance of tubulin in each preparation (Tubulin dimers and TAU5-bound, MAP2-bound, and unbound microtubule fractions) was quantified by Western blot, and tubulin from these fractions was further purified by ion exchange and size exclusion chromatography, as previously described (Fanara, P. et al. In vivo measurement of microtubule dynamics using stable isotope labeling with heavy water. Effect of taxanes. J. Biol. Chem. 279, 49940-49947 (2004)).
To test the role of microtubule/tubulin exchange in hippocampus-dependent memory, we treated animals with nocodazole (0.2 mg/kg), a microtubule-depolymerizing agent, four hours prior to CFC training (FIG. 10A). […] The total abundance of microtubule polymer, as detected by Western blotting, was decreased as well (data not shown).

SMILES | microtubule label incorporation pattern compared with in vivo (primary rat neurons) | total abundance of microtubule polymer (Western blotting) (microtubule polymer)
N[C@@H](CCC(=O)[O-])C(=O)[O-].[K+].[K+] [glutamate, potassium L-glutamate] | identical results | –
COC(=O)Nc1nc2ccc(C(=O)c3cccs3)cc2[nH]1 [nocodazole] | – | decreased
